Measurements reported in ChEMBL document CHEMBL1128090, “Substituted 2,4-diaminoquinazolines and 2,4-diamino-8-alkylpurines as antagonists of the neurokinin-2 (NK2) receptor” (Bioorg Med Chem Lett, 1995).

How the values were obtained:
[1] = target: T1, Substance-K receptor (Mesocricetus auratus, UniProt P51144); assay: Inhibition constant for displacement of [3H]NKA from Tachykinin receptor 2 found in hamster urinary bladder membrane (HUBM); type: cell membranes
T1 sequence (P51144 whole entry): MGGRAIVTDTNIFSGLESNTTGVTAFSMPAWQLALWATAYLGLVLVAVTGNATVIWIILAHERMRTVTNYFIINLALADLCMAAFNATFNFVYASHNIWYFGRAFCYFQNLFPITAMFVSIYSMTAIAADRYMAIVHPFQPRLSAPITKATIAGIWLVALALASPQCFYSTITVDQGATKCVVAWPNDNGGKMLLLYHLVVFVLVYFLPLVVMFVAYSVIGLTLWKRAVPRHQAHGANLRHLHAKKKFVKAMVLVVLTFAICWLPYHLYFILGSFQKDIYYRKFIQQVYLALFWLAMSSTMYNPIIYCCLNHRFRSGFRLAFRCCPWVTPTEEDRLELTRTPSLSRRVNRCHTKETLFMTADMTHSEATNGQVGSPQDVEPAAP

[2] = target: T2, Substance-K receptor (Homo sapiens, UniProt P21452); assay: Displacement of [3H]NKA from the cloned human Tachykinin receptor 2 which has been expressed in baculovirus infected insect sf21 cells
T2 sequence (P21452 whole entry): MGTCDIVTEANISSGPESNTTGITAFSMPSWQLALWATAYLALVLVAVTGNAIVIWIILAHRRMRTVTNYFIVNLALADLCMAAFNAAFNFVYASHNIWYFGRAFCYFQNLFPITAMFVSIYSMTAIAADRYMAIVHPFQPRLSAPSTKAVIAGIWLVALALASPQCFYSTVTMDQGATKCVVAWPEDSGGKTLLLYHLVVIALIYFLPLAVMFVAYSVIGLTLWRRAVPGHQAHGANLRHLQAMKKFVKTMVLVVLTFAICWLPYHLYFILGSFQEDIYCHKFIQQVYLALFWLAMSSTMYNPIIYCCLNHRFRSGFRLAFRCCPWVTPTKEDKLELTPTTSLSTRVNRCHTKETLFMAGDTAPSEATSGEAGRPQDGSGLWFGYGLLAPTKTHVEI

[3] = organism: Cavia porcellus; assay: Compound was tested for the inhibition of contraction induced by [b-Ala8-NKA(4-10)] in guinea pig trachea; type: functional
[4] = target: T2, Substance-K receptor; assay: Inhibition constant for displacement of [3H]NKA from the cloned human NK2 receptor
[5] = target: T2, Substance-K receptor; assay: Inhibition constant for displacement of [3H]-NKA from the cloned human NK2 receptor which has been expressed in baculovirus infected insect sf21 cells

Structure (SMILES)	Ki [1] [µM]	Ki [2] [µM]	other results
Clc1ccc(Nc2nc(N3CCOCC3)nc3ccccc23)cc1	29.5	–	–
CCCc1nc2nc(N3CCOCC3)nc(Nc3ccc(Cl)cc3)c2[nH]1	0.054	–	Ki [4]: 2.34 µM
CC(C)c1nc2nc(N3CCOCC3)nc(Nc3ccc(C(F)(F)F)cc3)c2[nH]1	–	2.85	Kb [3]: > 100 µM
CC(C)c1nc2nc(N3CCC(O)CC3)nc(Nc3ccc(C(F)(F)F)cc3)c2[nH]1	–	1.77	Kb [3]: > 100 µM
CCCNc1nc(Nc2ccc(Cl)cc2)c2[nH]c(C(C)C)nc2n1	–	3.49	–
O=C(O)c1ccc2c(Nc3ccc(Cl)cc3)nc(N3CCOCC3)nc2c1	20.3	–	–
COC(=O)c1ccc2c(Nc3ccc(Cl)cc3)nc(N3CCOCC3)nc2c1	0.82	–	–
CCc1nc2nc(N3CCOCC3)nc(Nc3ccc(Cl)cc3)c2[nH]1	0.52	–	Ki [4]: 6.94 µM
CC(C)NC(=O)c1ccc2c(Nc3ccc(Cl)cc3)nc(N3CCOCC3)nc2c1	58.7	–	–
CC(C)N1Cc2c(Nc3ccc(Cl)cc3)nc(N3CCOCC3)nc2C1=O	0.015	–	Ki [4]: 0.55 µM
COC1(OC)CCN(c2nc(Nc3ccc(Cl)cc3)c3[nH]c(C(C)C)nc3n2)CC1	–	3.44	–
CC(C)c1nc2nc(N3CCC(O)(c4ccccc4)CC3)nc(Nc3ccc(Cl)cc3)c2[nH]1	–	2.24	Kb [3]: 100 µM

Continued, in another order:

Ki [1] [µM]	Ki [2] [µM]	Structure (SMILES)	other results
–	2.1	CC(C)c1nc2nc(N3CCC(C)(O)CC3)nc(Nc3ccc(Cl)cc3)c2[nH]1	Kb [3]: 10.7 µM
–	5.58	CC(C)c1nc2[nH]c(NCc3ccccc3)nc(Nc3ccc(Cl)cc3)c-2n1	–
–	2.55	CC(C)c1nc2[nH]c(NCCCN)nc(Nc3ccc(Cl)cc3)c-2n1	–
6.6	–	Cc1nc2[nH]c(N3CCOCC3)nc(Nc3ccc(Cl)cc3)c-2n1	Ki [4]: 17.5 µM
–	4.36	CC(C)c1nc2[nH]c(N3CCC4(CC3)OCCO4)nc(Nc3ccc(Cl)cc3)c-2n1	–
–	5.89	CC(C)c1nc2[nH]c(N3CCC(=O)CC3)nc(Nc3ccc(Cl)cc3)c-2n1	–
0.067	–	CC(C)c1nc2[nH]c(N3CCOCC3)nc(Nc3ccc(Cl)cc3)c-2n1	Kb [3]: 70.8 µM; Ki [5]: 3.07 µM
